Assay results from patent US10980764B1, “Exogenous ketone supplements for reducing anxiety-related behavior” (priority 2016, dated 2021).

What was measured:
WAG/Rij rats = experiment: EPM after 7 days oral gavage, WAG/Rij rats, Study 1; format: in vivo, rat; conditions: 7 days gavage ~2.5 g/kg b.w./day, compared to control (SD)
Protocol: To extend the results and ensure that the results were not strain dependent, exogenous ketone supplements were tested on both SPD rats and Wistar Albino Glaxo/Rijswijk (WAG/Rij) rats for 7 days by gavage (5 g/kg/day and 2.5 g/kg/day, respectively, SD+KE and SD+KS), as WAG/Rij rats show reduced activity of GABAergic system (Luhmann H J, et al. Impairment of intracortical GABAergic inhibition in a rat model of absence epilepsy. Epilepsy Res. 1995 September; 22(1):43-51).
(§1) EPM (COULBOURN Instruments) was used to assess anxiety-related behavior of the rats after 83 days of chronic feeding or after 7 days of oral gavage. EPM experiments were carried out under non-stressful conditions (in a dimly lit and quiet room) between 12.00 and 14.00 hours.
(§2) The rats were transferred in their home cage to the experimental room 30 min prior to beginning the experiment. Briefly, rats were placed in the intersection of the four arms of the EPM, facing the open arm opposite to where the experimenter was and their behavior was recorded for 5 minutes. The amount of time spent and number of entries made on the open arms, closed arms and the center zones were recorded. Latency to entry into the closed arms and the distance travelled in each zones was also measured in chronically treated SPD rats. Notes were made on other ethological measures such as number of rears, head dips, fecal boli, and freezing, or stretched-attend postures.
(§3) At the end of the 5-minute test the rats were removed from the maze and placed back into their home cage. The maze was cleaned with 70% alcohol and after it with tap water and dried with paper towel between rats. The primary method for data collection was a video-tracking system with computer interface and video camera (SMART V3.0 PLATFORM, PANLAB, Harvard Apparatus, USA), to automatically collect behavioral data in SPD rats. A blinded observer was present in the testing room separated from the maze by a curtain, and manually collected EPM data in both SPD and WAG/Rij animals at the end of treatments.
Results were considered significant when p<0.05. Significance was determined by unpaired t-test.

SPD rats = experiment: EPM after 83 days chronic feeding, SPD rats, Study 3; format: in vivo, rat; conditions: chronic feeding 83 days, compared to control (SD)
Protocol: Generally, exogenous ketone supplementation was tested by adding to food and feeding chronically for 83 days in SPD rats and administering sub-chronically for 7 days in both rat models by daily intragastric gavage bolus, followed by assessment of anxiety measures on EPM. The groups included standard diet (SD) or SD+ketone supplementation.
EPM (Coulbourn Instruments) was used to assess anxiety-related behavior of the rats after 83 days of chronic feeding or after 7 days of oral gavage. EPM experiments were carried out under non-stress conditions (in dimly lit and quiet room) between 12.00 and 14.00 hours.
The rats were transferred in their home cage to the experimental room 30 min prior to beginning the experiment. Briefly, rats were placed in the intersection of the four arms of the EPM, facing the open arm opposite to where the experimenter was and their behavior was recorded for 5 minutes. The amount of time spent and number of entries made on the open arms, closed arms and the center zones were video recorded. Latency to entry into the closed arms and the distance travelled in each zones was also measured in chronically treated SPD rats. […] At the end of the 5-minute test, the rats were removed from the maze and placed back into their home cage. The maze was cleaned with 70% alcohol and after it with tap water and dried with paper towel between rats. The primary method for data collection was a video-tracking system with computer interface and video camera (SMART V3.0 PLATFORM, Panlab, Harvard Apparatus, USA), to automatically collect behavioral data in SPD rats. A blinded observer was present in the testing room separated from the maze by a curtain, and collected EPM data in both SPD and WAG/Rij animals.
Results were considered significant when p<0.05.

[1] = Blood βHB and glucose levels (PRECISION XTRA), WAG/Rij rats, Study 1; format: in vivo, rat; conditions: for Blood βHB: WAG/Rij rats, after 7 days of gavaging ~2.5 g/kg b.w./day, compared to baseline; for Glucose, Mean Diff., Tukey's multiple comparisons test (Compare S-D to WagRij) / βHB, Mean Diff., Tukey's multiple comparisons test (Compare S-D to WagRij): WR (WAG/Rij) rats, own Baseline minus 7 days of the same group
[2] = Blood βHB and glucose compared between SPD and WAG/Rij rats, Study 1; format: in vivo, rat; conditions: for Glucose, Mean Diff., Tukey's multiple comparisons test (Compare S-D to WagRij) / βHB, Mean Diff., Tukey's multiple comparisons test (Compare S-D to WagRij): 7 days:S-D minus 7 days:WR, same supplement (5 vs 2.5 g/kg/day); for βHB levels in WAG/Rij rats compared to SPD rats: before (baseline) and after sub-chronic ketone supplementation
[3] = Blood βHB and glucose levels (Precision Xtra), WAG/Rij rats, Study 3
Protocol: For the sub-chronic gavage administration, the gavage dose was used that induced desired elevation of blood ketone based on the current inventors' previous studies (Kesl et al. 2016).
In the chronic feeding study, blood βHB and glucose levels were measured 24 hours before the 1st day of ketone treatments (baseline levels) and at the 13th week after the EPM experiment. In the 7-day oral gavage studies, blood βHB and glucose levels were measured 24 hours before the 1st day of ketone treatments (baseline levels; SPD and WAG/Rij rats), 24 hours after the first gavage, and 60 min after gavage on the 7th day (SPD and WAG/Rij rats). Whole blood samples (10 μL) were taken from the saphenous vein for analysis of blood glucose (mg/dl) and βHB (mmol/1) levels with the commercially available glucose and ketone (βHB) monitoring system Precision Xtra™ (Abbott Laboratories, Abbott Park, Ill., USA).
(§4) All data are presented as the mean±standard error of the mean (SEM). The effects of ketone supplementations on anxiety-related behavior were compared, as well as on blood βHB and glucose levels to control or/and baseline levels. Data analysis was performed using GraphPad PRISM version 6.0a. Results were considered significant when p<0.05. Significance was determined by one-way ANOVA with Fisher s LSD test for the behavioral data. Blood ketone, blood glucose, and body weight change were compared using a two-way ANOVA with Tukey's multiple comparisons test.

[4] = test system: Sprague-Dawley (SPD) rats; experiment: EPM after 7 days oral gavage, SPD rats, Study 1; format: in vivo, rat; conditions: compared to control (SD); for Time spent in the center: 7 days (gavage 5 g/kg b.w./day or KD fed)
Protocol: as §1, §2, §3
as §4, with “anxiety level” for “anxiety-related behavior”, “unpaired t-test.” for “one-way ANOVA with Fisher s LSD test for the behavioral data.”, “test and unpaired t-test.” for “test.”

Compound | Distance traveled in the closed arms (SPD rats) | Time spent in the closed arms (SPD rats) | Blood βHB [1] | Glucose, Mean Diff., Tukey's multiple comparisons test (Compare S-D to WagRij) [1] | βHB, Mean Diff., Tukey's multiple comparisons test (Compare S-D to WagRij) [1] | Glucose, Mean Diff., Tukey's multiple comparisons test (Compare S-D to WagRij) [2] | βHB, Mean Diff., Tukey's multiple comparisons test (Compare S-D to WagRij) [2] | βHB levels in WAG/Rij rats compared to SPD rats [2] | Time spent in the center [4] | other results
CC(=O)CC(=O)OCCC(C)OC(=O)CC(C)=O (centres unmarked) [KE, 1,3-butanediol-acetoacetate diester] | significantly less | significantly less | elevated | -2.75 mg/dL | −0.6125 mmol/1 | 27.5 mg/dL | −0.9653 mmol/1 | Higher | decreased | Time spent in the center (WAG/Rij rats): more time; Glucose levels ([3]; WAG/Rij rats, after 24h, compared to baseline levels): lower; Glucose levels ([3]; WAG/Rij rats, after 7 days compared to the level at 24h): elevated; Blood βHB ([3]; WAG/Rij rats, after 7 days of gavage, compared to baseline, 24 hours and control): elevated; Time spent in the open arms ([4]; 7 days gavage 5 g/kg b.w./day): increased
Na^+/K^+-βHB mineral salt [KS] | significantly less | significantly less | elevated | -6.5 mg/dL | −0.5375 mmol/1 | 15.28 mg/dL | −0.5614 mmol/1 | Higher | decreased | Entries to the closed arms (WAG/Rij rats): less frequent; Time spent in the closed arms (WAG/Rij rats): less time; Time spent in the open arms (WAG/Rij rats): more time; Distance traveled in the center (SPD rats): more; Distance traveled in the open arms (SPD rats): significantly greater; Time spent in the center (SPD rats): significantly more; Blood βHB ([3]; rat, in vivo): elevated; Entries to the center ([4]; 7 days gavage 5 g/kg b.w./day): fewer times; Entries to the closed arms ([4]; 7 days gavage 5 g/kg b.w./day): less frequent
